Read-outs that look alike come from different tables or passages of the source. Marks after values point to notes of the source that are not given here. Where a SMILES comes first, the peptide text is derived from it. [ ]: non-standard residue; d: D form. The star is where a group is joined. d(aIle) = CC[C@H](C)[C@@H](N)C(=O)O; X1 = CC[C@H](C)CCCCC(=O)*; dDab = NCC[C@@H](N)C(=O)O; Dab = NCC[C@H](N)C(=O)O
Key:
in vivo = details: male, Sprague-Dawley, rat, plasma, 5 mg/kg; for Cmax / half-life: 5 mg/kg b.w.
Experimental: The samples were then centrifuged at 4,000 rpm for 10 min at 4°C to separate plasma, which was stored at −80°C until analysis.

[1] = 12 mg/kg every 2 h up to 12 h, total 72 mg/kg; cited from earlier work
[2] = mouse liver microsomes
Experimental: (§1) For without cofactors, 20 µL of PBS was added instead of pre-incubated cofactors. […] At each specified time, a 100 µL sample was taken, processed through a sample extraction procedure, and submitted for LC-MS/MS analysis ([35]). Half-life (t1/2) of test/control items was determined using the following equation
(§2) where, elimination rate constant (k) = −(slope of linear regression curve).

in vitro [3] = details: human, microsomes, pH 7.4
Experimental: as §1, §2

[4] = 14-day repeat dose toxicity in mice; details: 15 mg/kg/day in two s.c. doses, 14 days
Experimental: Organs were fixed in 10% formalin for histopathology, and the serum was centrifuged from whole blood. The blood was left undisturbed for 20 min and centrifuged at 1,000 × g for 10 min to isolate serum for biochemical tests of the kidney and liver toxicity evaluation ([22]).

[5] = Intravenous acute toxicity in mice; type: in vivo, Balb/c mice
Experimental: In total, 8–10 week old female Balb/c mice (n = 3) were administered tridecaptin M starting at 15 mg/kg, 25 mg/kg, 50 mg/kg, and 100 mg/kg. […] In this study, we administered 18 mg/kg of colistin to mice intravenously. […] Later, in the second set, intermediate concentrations of 20 mg/kg, 25 mg/kg, 30 mg/kg, 35 mg/kg, and 40 mg/kg doses were also administered to n = 4 mice. In these groups, blood was collected at 24 h post administration or immediately after visible movement stopped (40 mg/kg group), serum was separated and pooled together for each group n = 4, and biochemical serum tests were conducted.

[6] = Experimental: Acute toxicity was performed on Balb/c female mice, 8 weeks old. This study was adopted and modified from a study described previously ([39]). Initial screening was done with 100 mg/kg, 200 mg/kg, 400 mg/kg, and 600 mg/kg doses of tridecaptin M and vehicle control (100% DMSO). […] Eight mice were taken, four in each group ([…]), one group was administered vehicle control (DMSO), and the other group was administered 600 mg/kg of tridecaptin M. After 3 days, blood was collected to obtain serum for biochemical tests, and mice were euthanized to remove organs (preserved in 10% formalin) for histopathological analysis.
[7] = concentrations well above its MIC; cited from earlier work
in vitro [8] = details: mouse, plasma, % Binding to Plasma Protein
Experimental: Plasma protein binding was assessed using the rapid equilibrium dialysis (RED) method, utilizing RED insert devices with a dialysis membrane featuring an 8,000 Dalton molecular weight cutoff for proteins. The test/control items in human, rat, and mouse plasma were prepared at a test concentration of 10 µM using 10 mM DMSO stocks, and the samples were added to the plasma chamber of the RED insert. The device was sealed with tape and incubated in a thermomixer at 37°C with shaking at 300 rpm for 4 h. Following incubation, a 50 µL aliquot of plasma and buffer was collected from each insert and diluted with an equal volume of the opposite matrix to mitigate matrix effects. The samples were quantified using LC-MS/MS analysis and were tested in duplicates.

CYP1A2 = molecular target: T1, CYP1A2 (Homo sapiens, UniProt P05177); experiment: biochemical; type: biochemical
T1 sequence (P05177 1-516): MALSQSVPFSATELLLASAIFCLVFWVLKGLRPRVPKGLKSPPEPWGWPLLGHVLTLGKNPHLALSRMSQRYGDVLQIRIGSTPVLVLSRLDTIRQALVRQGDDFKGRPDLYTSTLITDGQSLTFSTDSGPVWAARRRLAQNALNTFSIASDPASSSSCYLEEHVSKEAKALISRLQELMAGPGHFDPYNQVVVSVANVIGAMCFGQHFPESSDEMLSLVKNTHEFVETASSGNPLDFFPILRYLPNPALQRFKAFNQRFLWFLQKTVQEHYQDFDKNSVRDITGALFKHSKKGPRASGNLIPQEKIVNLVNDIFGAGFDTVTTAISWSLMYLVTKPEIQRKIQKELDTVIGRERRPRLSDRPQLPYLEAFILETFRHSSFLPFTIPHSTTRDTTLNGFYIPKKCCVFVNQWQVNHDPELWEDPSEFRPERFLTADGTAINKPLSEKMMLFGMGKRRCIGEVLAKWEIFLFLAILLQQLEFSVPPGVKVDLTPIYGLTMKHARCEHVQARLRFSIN
Experimental: The CYP inhibition assay was performed for test/control inhibitor items in duplicates using a 96-well fluorescence plate. An example of the preparation of CYP inhibition is given below in Table 8.
The plate with CYP master premix with test/control was incubated to allow the test/control samples to interact with CYP enzyme for 10 ± 1 min at 25°C under shaking conditions (400 rpm) using Thermomixer. The assay was initiated by adding 10 µL of a substrate and NADP^+ mixture to all wells, including a vehicle control and an assay blank. […] After incubation, the reaction was quenched by adding 50 µL of stop reagent (0.5 M Tris base) to each well.

[9] = 40 /kg i.v., at death within 2 h

Structure (SMILES): CC[C@H](C)CCCCC(=O)NCC(=O)N[C@H](CCN)C(=O)NCC(=O)N[C@H](CO)C(=O)N[C@H](Cc1c[nH]c2ccccc12)C(=O)N[C@@H](CO)C(=O)N[C@@H](CCN)C(=O)N[C@H](CCN)C(=O)N[C@H](C(=O)N[C@@H](CCC(=O)O)C(=O)N[C@H](C(=O)N[C@@H](C(=O)N[C@@H](CO)C(=O)O)[C@@H](C)CC)[C@@H](C)CC)[C@@H](C)CC [Tridecaptin M, tridecaptin M] (X1-G[dDab]G[dS][dW]S[Dab][dDab]IEI[d(aIle)]S-OH)
- AUC(0-t) (in vivo; iv): 94600 ± 45000 ng·h/mL
- MRT last (in vivo; iv): 2.69 ± 1.02 h
- Vd (in vivo; iv): 0.16 ± 0.04 L/kg
- clearance (in vivo; iv): 1 ± 0.33 mL/min/kg
- Cmax (in vivo; iv): 38500 ng/mL
- half-life (in vivo; iv, T1/2, intravenous): 3.65 ± 0.56 h
- AUC(0-t) (in vivo; sc): 14000 ± 2090 ng·h/mL
- MRT last (in vivo; sc): 8.81 ± 2.1 h
- Cmax (in vivo; sc, subcutaneous): 9150 ± 1700 ng/mL
- half-life (in vivo; sc, T1/2, subcutaneous): 8.81 h
- tolerance in acute toxicity study [1]: good tolerance
- CL [2]: <11.55 µL/min/mg
- half-life (in vitro [3]): 1.31 h
- microsomal CLint (in vitro [3]): 17.6 µL/min/mg
- remaining at 0.25 h (in vitro [3]): 58%
- remaining at 0.5 h (in vitro [3]): 50.2%
- remaining at 1 h (in vitro [3]): 53.7%
- remaining at 2 h (in vitro [3]): 48.4%
- ALP (serum) [4]: 77.33 ± 27.47 U/L
- Albumin (serum) [4]: 2.60 ± 0.47 g/dL
- BBilirubin (serum) [4]: 0.31 ± 0.06 mg/dL
- BUN (serum) [4]: 35.33 ± 11.43 mg%
- Calcium (serum) [4]: 7.76 ± 2.19 mg%
- Creatinine (serum) [4]: 0.41 ± 0.026 mg%
- Globulin (serum) [4]: 3.53 ± 0.83 g/dL
- Phosphorous (serum) [4]: 7.36 ± 1.27 mg%
- Proteins (serum) [4]: 6.13 ± 1.06 g/dL
- SGOT (serum) [4]: 657.33 ± 141.06 Units/L
- SGPT (serum) [4]: 103.67 ± 40.70 Units/L
- Uric acid (serum) [4]: 4.6 ± 1.89 mg%
- histopathological analysis of liver and kidneys [4]: no signs of toxicity
- Amylase (pooled serum) ([5]; 20 mg/kg i.v., 24 h): 3800 U/L
- BUN (pooled serum) ([5]; 20 mg/kg i.v., 24 h): 96 mg%
- CPK (pooled serum) ([5]; 20 mg/kg i.v., 24 h): 448 U/L
- CPK_MB (pooled serum) ([5]; 20 mg/kg i.v., 24 h): 420 U/L
- Glucose (pooled serum) ([5]; 20 mg/kg i.v., 24 h): 344 mg/dL
- LDH (pooled serum) ([5]; 20 mg/kg i.v., 24 h): 2120 U/L
- Lipase (pooled serum) ([5]; 20 mg/kg i.v., 24 h): 1016 U/L
- SGOT (pooled serum) ([5]; 20 mg/kg i.v., 24 h): 244 Units/L
- SGPT (pooled serum) ([5]; 20 mg/kg i.v., 24 h): 68 Units/L
- outcome of i.v. administration ([5]; 25 mg/kg or less i.v.): no visible signs of toxicity or mortality
- clinical signs ([5]; 30 mg/kg i.v.): abnormal motor behavior, including dragging of limbs
- survival time post-administration ([5]; 30 mg/kg i.v.): 6 to 10 h
- time to mortality ([5]; 40 mg/kg i.v.): ≤ 2 h
- outcome of i.v. administration ([5]; 50 mg/kg i.v.): resulted in mortality
- outcome of i.v. administration ([5]; 100 mg/kg i.v.): immediately lethal
- Amylase (pooled serum) ([5]; 25 /kg i.v., 24 h): 5144 U/L
- BUN (pooled serum) ([5]; 25 /kg i.v., 24 h): 112 mg%
- CPK (pooled serum) ([5]; 25 /kg i.v., 24 h): 712 U/L
- CPK_MB (pooled serum) ([5]; 25 /kg i.v., 24 h): 952 U/L
- Glucose (pooled serum) ([5]; 25 /kg i.v., 24 h): 248 mg/dL
- LDH (pooled serum) ([5]; 25 /kg i.v., 24 h): 3896 U/L
- Lipase (pooled serum) ([5]; 25 /kg i.v., 24 h): 972 U/L
- SGOT (pooled serum) ([5]; 25 /kg i.v., 24 h): 872^b Units/L
- SGPT (pooled serum) ([5]; 25 /kg i.v., 24 h): 208 Units/L
- Amylase (pooled serum) [5, 9]: 1560 U/L
- BUN (pooled serum) [5, 9]: 24 mg%
- CPK (pooled serum) [5, 9]: 24,472 U/L
- CPK_MB (pooled serum) [5, 9]: 1408 U/L
- Glucose (pooled serum) [5, 9]: 152 mg/dL
- LDH (pooled serum) [5, 9]: 3280 U/L
- Lipase (pooled serum) [5, 9]: 368 U/L
- SGOT (pooled serum) [5, 9]: 784 Units/L
- SGPT (pooled serum) [5, 9]: 88 Units/L
- histopathology of liver, kidney, heart and brain vs control ([5]; i.v. administration): no significant morphological alterations
- dose at which acute toxicity is seen ([5]; intravenous administration): ≥ 30 mg/kg
- SGPT (serum) ([6]; 600 mg/kg s.c., female mouse TF-2, day 3): 112 Units/L
- mortality ([6]; single s.c. dose 100-600 mg/kg): No mortality was observed
- histopathology of heart, kidney, liver, brain, spleen ([6]; single s.c. dose 100-600 mg/kg, vs vehicle control): No signs of toxicity or pathological changes
- dose up to which safety is confirmed ([6]; subcutaneous administration): up to 600 mg/kg
- hemolysis [7]: non-hemolytic
- fraction unbound at 4 h, 10 µM (in vitro [8]): 0.5
- IC50 (CYP1A2): > 30 µM
- inhibition at 25 min, 0.01 µM (CYP1A2; human, % inhibition CYP 1A2): < 0%
- inhibition at 25 min, 0.03 µM (CYP1A2; human, % inhibition CYP 1A2): < 0%
- inhibition at 25 min, 0.1 µM (CYP1A2; human, % inhibition CYP 1A2): < 0%
- inhibition at 25 min, 0.3 µM (CYP1A2; human, % inhibition CYP 1A2): < 0%
- inhibition at 25 min, 1 µM (CYP1A2; human, % inhibition CYP 1A2): < 0%
- inhibition at 25 min, 3 µM (CYP1A2; human, % inhibition CYP 1A2): < 0%
- inhibition at 25 min, 10 µM (CYP1A2; human, % inhibition CYP 1A2): < 0%
- inhibition at 25 min, 30 µM (CYP1A2; human, % inhibition CYP 1A2): ≤ 0%

From paper PMC12486805, “Preclinical evaluation of tridecaptin M: in vitro and in vivo efficacy against colistin-resistant Gram-negative bacterial pathogens and pharmacokinetics” (Antimicrobial Agents and Chemotherapy, 2025)
